How the values were obtained:
murine leukemia P388 = assay: MTT assay (Test C), murine leukemia P388; format: cell-based; details: Mus musculus, 96 h, 4 days, read-out: cytotoxic activity IC50
Method: (§1) Test C. Evaluation of G-Quadruplex Stabilizers Using the MTT Assay.
(§2) Cell lines are selected based upon one or more factors including data on their relative telomerase activity, varied organ sites, available comparative data, and their ability to form solid tumors in athymic nude mice. The advantage of an MTT assay is that the cytotoxic/cytostatic activities can be readily determined. Cells are cultured for 4 days at 37° C. followed by addition of MTT (3-[4,5-dimethylthiozol-2-yl]-2,5-diphenyltetrazolium bromide (Sigma) (0.1 mg/ml). Cells are treated with MTT for 3 hrs and then dissolved in 100 μl 100% DMSO. Absorbance is measured at OD570 using a microplate reader (Model 3550 UV from BIO-RAD). The MTT value is normalized to OD570 of cells treated with Cellfectin alone. Stock solutions of each compound are prepared. MTT assays are performed using spectrometric analysis and 96 well plates. Compound 258, a representative compound of formula I, was evaluated against a variety of cell lines using the MTT assay compound.

[1] = tested on: human lymphoblastoma RPMI 8402; assay: MTT assay (Test C), human lymphoblastoma RPMI 8402; format: cell-based; details: 96 h, RPMI 8402, MTT, 4 days, read-out: cytotoxic activity IC50
Method: as §1, §2

[2] = tested on: human nasopharyngeal carcinoma KB3-1; assay: MTT assay (Test C), human nasopharyngeal carcinoma KB3-1; format: cell-based; details: KB 3-1, 96 h, KB3-1, MTT, 4 days, read-out: cytotoxic activity IC50
Method: as §1, §2

[3] = tested on: human breast cancer cell lines HBC-4, BSY-1, HBC-5, MCF-7, and MDA-MB-231; details: range over HBC-4, BSY-1, HBC-5, MCF-7, MDA-MB-231; cited from earlier work
telomerase = details: read-out: telomerase inhibitory activity IC50; cited from earlier work
SK-N-AS = details: read-out: cytotoxicity IC50; cited from earlier work
LAN5 = details: read-out: cytotoxicity IC50; cited from earlier work
WAC2 = details: read-out: cytotoxicity IC50; cited from earlier work
LAN1 = details: read-out: cytotoxicity IC50; cited from earlier work
MiaPaCa = details: read-out: cytotoxicity IC50; cited from earlier work
K62 leukemia cells = details: cited from earlier work
[4] = tested on: natural bone marrow CD34-positive cells; details: cited from earlier work

CC(C)[C@@H]1NC(=O)c2coc(n2)-c2coc(n2)-c2coc(n2)C/C=C/c2coc(n2)-c2coc(n2)-c2coc1n2 [Compound 258, Macrocyclic Hexaoxazole]
IC50 (murine leukemia P388): 45 nM
IC50 [1]: 25 nM
IC50 [2]: 25 nM
melting point: 195 to 197 °C (dec.)

CC[C@H](C)[C@@H]1NC(=O)c2nc(oc2-c2ccccc2)-c2csc(n2)-c2coc(n2)-c2coc(n2)-c2coc(n2)CNC(=O)[C@@H](C(C)C)NC1=O [YM-216391]
GI50 [3]: 15 to 33 nM

Cc1oc2nc1-c1nc(co1)-c1nc(co1)-c1nc(co1)-c1nc(co1)-c1nc(co1)C1=NC(CS1)c1nc-2c(C)o1 (stereo not shown) [Telomestatin]
IC50 (telomerase): 5 nM
IC50 (SK-N-AS): 800 nM
IC50 (LAN5): 2500 nM
IC50 (WAC2): 3200 nM
IC50 (LAN1): 4000 nM
IC50 (MiaPaCa): 500 nM
effect on plating efficiency (K62 leukemia cells): does suppress the plating efficiency
effect on BFU-E and CFU-GM [4]: much lesser effect
